Assay results as given in US8178506B2, “Oligomeric compounds and compositions for use in modulation of small non-coding RNAs” (Regulus Therapeutics Inc., priority 2003, dated 2012).
Values joined by “and” are separate entries in the source; they are usually repeats but may differ in a detail not shown here. Equal entries are not always repeated. In the oligonucleotide strings, read from the 5' end, every base follows the letter of its sugar. An asterisk marks phosphorothioate; unmarked linkages are phosphodiester. Other units and linkages are bracketed, terminal groups are in braces. A string of capitals states the bases alone. e = 2'-O-(2-methoxyethyl) (MOE); [5mC] = 5-methylcytosine; d = 2'-deoxy (DNA)

System: HeLa cells
Test: Cell cycle assay in HeLa cells
Assay type: cell-based, human
Details: HeLa cells
[1] = 150 nM oligomeric compound, 24 hours, relative to untreated control (UTC = 100)
[2] = 150 nM oligomeric compound, 48 hours after treatment, relative to untreated control (UTC=100)
[3] = 25 nM, 48 hours, percentage of cells in phase, average of replicates
[4] = 50 nM, 48 hours, percentage of cells in phase, average of replicates
[5] = 100 nM, 48 hours, percentage of cells in phase, average of replicates
[6] = 150 nM, 48 hours, relative to untreated control
[7] = 150 nM, 48 hours, percentage of cells in phase, average of replicates

327946 (antisense eA*eG*eG*e[5mC]*eG*eA*eA*eG*eG*eA*eT*eG*eA*e[5mC]*eA*eA*eA*eG*eG*eG*eA*eA) [compound 327946]
% cells aneuploid [1]: 43% | % cells in cell cycle phase G1 [1]: 90% | % cells in cell cycle phase G2/M [1]: 156% | % cells in cell cycle phase S [1]: 84% | % cells in cell cycle phase subG1 [1]: 225% | % cells in cell cycle phase: G1 [2]: 72% | % cells in cell cycle phase: G2/M [2]: 129% | % cells in cell cycle phase: S [2]: 150% | % cells in cell cycle phase: aneuploid [2]: 76% | % cells in cell cycle phase: subG1 [2]: 431%

327957 (antisense e[5mC]*eA*e[5mC]*eA*eA*eG*eT*eT*e[5mC]*eG*eG*eA*eT*e[5mC]*eT*eA*e[5mC]*eG*eG*eG*eT*eT) [compound 327957]
% cells aneuploid [1]: 66% | % cells in cell cycle phase G1 [1]: 91% | % cells in cell cycle phase G2/M [1]: 145% | % cells in cell cycle phase S [1]: 88% | % cells in cell cycle phase subG1 [1]: 197% | % cells in cell cycle phase: G1 [2]: 65% | % cells in cell cycle phase: G2/M [2]: 127% | % cells in cell cycle phase: S [2]: 169% | % cells in cell cycle phase: aneuploid [2]: 85% | % cells in cell cycle phase: subG1 [2]: 864%

327949 (antisense e[5mC]*eA*e[5mC]*eA*eA*eA*eT*eT*e[5mC]*eG*eG*eA*eT*e[5mC]*eT*eA*e[5mC]*eA*eG*eG*eG*eT*eA) [compound 327949]
% cells aneuploid [1]: 68% | % cells in cell cycle phase G1 [1]: 82% | % cells in cell cycle phase G2/M [1]: 172% | % cells in cell cycle phase S [1]: 84% | % cells in cell cycle phase subG1 [1]: 194% | % cells in cell cycle phase: G1 [2]: 66% | % cells in cell cycle phase: G2/M [2]: 138% | % cells in cell cycle phase: S [2]: 157% | % cells in cell cycle phase: aneuploid [2]: 71% | % cells in cell cycle phase: subG1 [2]: 773%

328403 (antisense eA*eG*eG*e[5mC]*e[5mC]*dT*dA*dT*dT*d[5mC]*d[5mC]*dT*dG*dT*dA*eG*e[5mC]*eA*eA*eA) [compound 328403]
% cells in cell cycle phase: G2/M (25 nM, 48 hours): 18% | % cells in cell cycle phase: G1 [3]: 58% | % cells in cell cycle phase: S [3]: 24% | % cells in cell cycle phase: aneuploid [3]: 13% | % cells in cell cycle phase: subG1 [3]: 1.5% | % cells in cell cycle phase: G2/M (50 nM, 48 hours): 20% | % cells in cell cycle phase: G1 [4]: 53% | % cells in cell cycle phase: S [4]: 27% | % cells in cell cycle phase: aneuploid [4]: 14% | % cells in cell cycle phase: subG1 [4]: 1.1% | % cells in cell cycle phase: G2/M (100 nM, 48 hours): 23% | % cells in cell cycle phase: G1 [5]: 48% | % cells in cell cycle phase: S [5]: 29% | % cells in cell cycle phase: aneuploid [5]: 11% | % cells in cell cycle phase: subG1 [5]: 3.5% | % cells aneuploid [1]: 53% and 82% | % cells in cell cycle phase G1 [1]: 70% and 86% | % cells in cell cycle phase G2/M [1]: 197% and 179% | % cells in cell cycle phase S [1]: 85% and 75% | % cells in cell cycle phase subG1 [1]: 284% and 189% | % cells in cell cycle phase: G1 [2]: 61% and 82% | % cells in cell cycle phase: G2/M [2]: 131% and 106% | % cells in cell cycle phase: S [2]: 177% and 148% | % cells in cell cycle phase: aneuploid [2]: 85% and 80% | % cells in cell cycle phase: G2/M (150 nM, 48 hours): 24% | % cells in cell cycle phase G1 [6]: 125% | % cells in cell cycle phase G2/M [6]: 80% | % cells in cell cycle phase S [6]: 89% | % cells in cell cycle phase aneuploid [6]: 175% | % cells in cell cycle phase subG1 [6]: 89% | % cells in cell cycle phase: G1 [7]: 37% | % cells in cell cycle phase: S [7]: 40% | % cells in cell cycle phase: aneuploid [7]: 13% | % cells in cell cycle phase: subG1 [7]: 8.2%

327944 (antisense eA*eA*eA*eG*eT*eG*eT*e[5mC]*eA*eG*eA*eT*eA*e[5mC]*eG*eG*eT*eG*eT*eG*eG) [compound 327944]
% cells aneuploid [1]: 50% | % cells in cell cycle phase G1 [1]: 85% | % cells in cell cycle phase G2/M [1]: 111% | % cells in cell cycle phase S [1]: 110% | % cells in cell cycle phase subG1 [1]: 165% | % cells in cell cycle phase: G1 [2]: 75% | % cells in cell cycle phase: G2/M [2]: 144% | % cells in cell cycle phase: S [2]: 129% | % cells in cell cycle phase: aneuploid [2]: 78% | % cells in cell cycle phase: subG1 [2]: 490%
